Reference: BindingDB's records for doi:10.7270/Q2TX3CSC (Vanderbilt Screening Center for GPCRs, Ion Channels and …, 2009)

Biological target: T1, Solute carrier family 12 member 5 (Homo sapiens, UniProt Q9H2X9)
T1 sequence (Q9H2X9 whole entry): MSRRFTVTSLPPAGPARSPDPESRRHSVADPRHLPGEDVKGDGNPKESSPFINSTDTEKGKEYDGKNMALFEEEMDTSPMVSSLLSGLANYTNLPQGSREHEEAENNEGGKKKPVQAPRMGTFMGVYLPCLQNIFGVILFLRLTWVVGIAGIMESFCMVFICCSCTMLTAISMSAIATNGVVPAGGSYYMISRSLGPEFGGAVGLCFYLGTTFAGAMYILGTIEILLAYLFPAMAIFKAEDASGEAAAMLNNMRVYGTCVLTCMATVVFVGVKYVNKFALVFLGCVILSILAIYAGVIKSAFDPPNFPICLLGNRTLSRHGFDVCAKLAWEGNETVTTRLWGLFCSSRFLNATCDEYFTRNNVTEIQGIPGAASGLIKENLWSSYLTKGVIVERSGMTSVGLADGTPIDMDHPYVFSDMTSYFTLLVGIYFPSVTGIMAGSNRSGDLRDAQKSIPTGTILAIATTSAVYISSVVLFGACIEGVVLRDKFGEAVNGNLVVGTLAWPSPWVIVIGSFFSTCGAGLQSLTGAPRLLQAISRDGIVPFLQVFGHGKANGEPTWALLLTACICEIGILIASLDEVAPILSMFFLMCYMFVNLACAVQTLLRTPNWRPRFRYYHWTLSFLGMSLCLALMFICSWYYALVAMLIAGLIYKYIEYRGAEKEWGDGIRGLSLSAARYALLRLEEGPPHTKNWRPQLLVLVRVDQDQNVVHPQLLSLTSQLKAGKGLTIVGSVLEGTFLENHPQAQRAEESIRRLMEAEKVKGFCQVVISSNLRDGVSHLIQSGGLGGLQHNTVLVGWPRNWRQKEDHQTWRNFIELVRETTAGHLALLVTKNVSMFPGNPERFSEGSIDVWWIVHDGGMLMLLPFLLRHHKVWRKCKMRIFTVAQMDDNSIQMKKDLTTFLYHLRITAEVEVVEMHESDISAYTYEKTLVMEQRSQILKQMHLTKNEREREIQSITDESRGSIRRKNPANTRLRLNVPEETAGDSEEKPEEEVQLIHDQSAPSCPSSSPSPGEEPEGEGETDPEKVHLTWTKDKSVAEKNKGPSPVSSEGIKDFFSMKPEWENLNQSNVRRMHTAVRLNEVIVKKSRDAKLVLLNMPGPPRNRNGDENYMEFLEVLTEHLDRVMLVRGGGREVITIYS
Assay: concentration-response of KCC2 transport modulators – cell-based, HEK293 KCC2, FluoZin-2 fluorescence, dose response (AID 1736)

[1] = inactive by the depositor's call

SMILES	EC50 [µM]	EC50 [1] [µM]
Cc1cccc(NC2=NN=C(c3ccccc3F)CS2)c1C	27.9	
CCOC(=O)c1cc2c(ccn2-c2ccc(F)cc2)n1CC(=O)NC(C)(C)C [4-[2-(tert-butylamino)-2-keto-ethyl]-1-(4-fluorophenyl)pyrrolo[3,2-b]pyrrole-5-carboxylic acid ethyl ester]	51100	
COc1ccc(C(=O)CSc2nnnn2Cc2ccccc2)cc1 [1-(4-methoxyphenyl)-2-[[1-(phenylmethyl)-1,2,3,4-tetrazol-5-yl]sulfanyl]ethanone]		1.68
NC(=S)NN=C1C(=O)N(Cc2ccc(F)cc2)c2ccccc21 [1-[(Z)-[1-[(4-fluorophenyl)methyl]-2-oxidanylidene-indol-3-ylidene]amino]thiourea]	144	
CC(C)c1ccc(C=NNC(=O)c2ccccc2Cl)cc1 [2-chloranyl-N-[(4-propan-2-ylphenyl)methylideneamino]benzamide]		45.8
CC1Cc2ccccc2N1C(=O)CSc1nnc(CNc2ccccc2)o1 (configuration not stated) [1-(2-Methyl-2,3-dihydro-indol-1-yl)-2-(5-phenylaminomethyl-[1,3,4]oxadiazol-2-ylsulfanyl)-ethanone]	0.941	
O=C(O)CC/C(=C\c1ccc(N2CCOCC2)c([N+](=O)[O-])c1)c1nc2ccccc2s1 [(E)-4-(1,3-benzothiazol-2-yl)-5-(4-morpholin-4-yl-3-nitro-phenyl)pent-4-enoic acid]	2.66	
CCCCNc1cc(C(=O)O)cc(S(N)(=O)=O)c1Oc1ccccc1 [Fordiuran]	4.69e-05	
CCOc1cc(Br)ccc1S(=O)(=O)NCc1ccccc1 [4-bromanyl-2-ethoxy-N-(phenylmethyl)benzenesulfonamide]	14.7	
S=C(NCCc1ccccc1)NN=Cc1cccc(Cl)c1Cl [1-[(2,3-dichlorobenzylidene)amino]-3-phenethyl-thiourea]	47.6	
CCn1c(=O)n(CC)c2cc(S(=O)(=O)N3CCC(c4ccccc4)CC3)ccc21 [1,3-diethyl-5-(4-phenylpiperidin-1-yl)sulfonyl-benzimidazol-2-one]	10.8	
CCc1ccc(OCCNC(=O)c2ccccc2SCc2ccccc2)cc1 [2-(benzylthio)-N-[2-(4-ethylphenoxy)ethyl]benzamide]	7.39	
CC[C@H](CO)Nc1nc(Nc2cccc(Cl)c2)c2ncn(C(C)C)c2n1 [(R)-2-(6-(3-chlorophenylamino)-9-isopropyl-9H-purin-2-ylamino)butan-1-ol]	9.54	
CCCCCC(=O)Cc1cc(O)cc2c1C(=O)Oc1cc(O)c(C(=O)O)c(CCCCC)c1O2 [3,8-Dihydroxy-11-oxo-1-(2-oxo-heptyl)-6-pentyl-11H-dibenzo[b,e][1,4]dioxepine-7-carboxylic acid]	4.02	
Cc1[nH]c2ccccc2c1SCC(=O)N1CCN(c2ccccc2)CC1 [2-[(2-methyl-1H-indol-3-yl)thio]-1-(4-phenyl-1-piperazinyl)ethanone]	4.24	
O=C(CSc1ccccc1C(=O)NCc1ccccc1)NC1CCCCCCC1 [2-[2-(cyclooctylamino)-2-oxidanylidene-ethyl]sulfanyl-N-(phenylmethyl)benzamide]	51.6	
Sc1nnc(COc2ccc(Cl)cc2)o1 [5-(4-Chloro-phenoxymethyl)-3H-[1,3,4]oxadiazole-2-thione]	9.34	
Cc1ccc(Nc2nnc(SCC(=O)c3ccc(Br)s3)s2)c(C)c1 [1-(5-bromanylthiophen-2-yl)-2-[[5-[(2,4-dimethylphenyl)amino]-1,3,4-thiadiazol-2-yl]sulfanyl]ethanone]	2.31	

SMILES	EC50 [µM]	EC50 [1] [µM]
CC(C)(C)NC(=O)C(c1ccncc1)N(Cc1ccco1)C(=O)c1ccc(-c2ccccc2)[nH]1 (configuration not stated) [N-[2-(tert-butylamino)-2-oxo-1-pyridin-4-ylethyl]-N-(furan-2-ylmethyl)-5-phenyl-1H-pyrrole-2-carboxamide]	7.02	
COc1ccc(-c2nc(C[S+]([O-])CC(=O)N3CCc4ccccc4C3)c(C)o2)cc1 (configuration not stated) [1-(3,4-dihydro-1H-isoquinolin-2-yl)-2-[[2-(4-methoxyphenyl)-5-methyl-1,3-oxazol-4-yl]methylsulfinyl]ethanone]		1410
O=C(c1ccc(S(=O)(=O)c2cccc(Cl)c2)c([N+](=O)[O-])c1)N1CCN(c2ccccn2)CC1 [1-{4-[(3-chlorophenyl)sulfonyl]-3-nitrobenzoyl}-4-pyridin-2-ylpiperazine]	6.85	
CN(C)CCn1c(=S)[nH]c2ccc(Cl)cc2c1=O [6-chloro-3-[2-(dimethylamino)ethyl]-2-thioxo-2,3-dihydroquinazolin-4(1H)-one]		67.2
COc1ccc(Nc2nnc(SCc3cc(=O)n4ccsc4n3)s2)cc1 [7-[[5-(4-methoxyanilino)-1,3,4-thiadiazol-2-yl]sulfanylmethyl]-[1,3]thiazolo[3,2-a]pyrimidin-5-one]		8870
COc1ccc(-c2cc(CNC(=O)CN(C)Cc3ccccc3)on2)cc1 [2-[benzyl(methyl)amino]-N-[[3-(4-methoxyphenyl)-1,2-oxazol-5-yl]methyl]acetamide]	5.23	
O=C(C1CCN(S(=O)(=O)c2cccc3nsnc23)CC1)N1CCc2ccccc2C1 [2-{[1-(2,1,3-benzothiadiazol-4-ylsulfonyl)piperidin-4-yl]carbonyl}-1,2,3,4-tetrahydroisoquinoline]	69.7	
O=C(COC(=O)c1cc([N+](=O)[O-])ccc1NCc1ccccc1)NC1CCCCC1 [2-(benzylamino)-5-nitro-benzoic acid [2-(cyclohexylamino)-2-keto-ethyl] ester]	0.651	
COc1cc(C=NN(C)c2ccccc2)ccc1O	23.8	
Cc1ccc(NC(=O)c2ccccc2NS(=O)(=O)c2ccc(Cl)s2)cc1 [2-[(5-chloranylthiophen-2-yl)sulfonylamino]-N-(4-methylphenyl)benzamide]	1.17	
CNc1ccc2oc(C[C@H]3O[C@@]4(CC[C@H]3C)O[C@H]([C@H](C)C(=O)c3ccc[nH]3)[C@H](C)C[C@H]4C)nc2c1C(=O)O [MLS001056783]	11.3	
CC12CC3(C)CC(C)(C1)CC(C(=O)NC(=S)N1CCCC1)(C2)C3 [3,5,7-trimethyl-N-pyrrolidin-1-ylcarbothioyl-adamantane-1-carboxamide]	1.14	
Cc1ccc(/C=C2\SC(=S)N(/N=C/C3C=C([N+](=O)[O-])C=CC3=O)C2=O)o1 (configuration not stated) [(5Z)-5-[(5-methylfuran-2-yl)methylidene]-3-[[(E)-(3-nitro-6-oxocyclohexa-2,4-dien-1-ylidene)methyl]amino]-2-sulfanylidene-1,3-thiazolidin-4-one]	11.8	
Cc1cc([N+](=O)[O-])ccc1NCc1ccccc1 [2-methyl-4-nitro-N-(phenylmethyl)aniline]	1.74	
COc1ccccc1C(=O)NC1CCN(C(=S)NCCc2ccccc2)CC1 [2-methoxy-N-[1-(2-phenylethylcarbamothioyl)piperidin-4-yl]benzamide]	6.66	
O=C(NC(=S)Nc1nc(-c2cccc([N+](=O)[O-])c2)cs1)c1cc(Cl)ccc1Cl [2,5-bis(chloranyl)-N-[[4-(3-nitrophenyl)-1,3-thiazol-2-yl]carbamothioyl]benzamide]	16.2	
C=CCNc1oc(Cc2cccc3ccccc23)nc1C#N [2-(1-naphthalenylmethyl)-5-(prop-2-enylamino)-4-oxazolecarbonitrile]	4.78	
Cc1onc(C(=O)N2CCN(Cc3ccccc3)CC2)c1[N+](=O)[O-] [(4-benzylpiperazin-1-yl)-(5-methyl-4-nitro-1,2-oxazol-3-yl)methanone]	59.4	

The next lines start with the values.

EC50 [µM]	EC50 [1] [µM]	SMILES
6.49		O=C(NCc1nc(-c2ccccc2)cs1)c1ccccc1 [MLS000661971]
1.65		O=S(=O)(NCCc1ccccc1F)c1cccc(S(=O)(=O)N2CCOCC2)c1 [MLS000076090]
6.48		O=C(c1ccccc1SCc1ccc(F)cc1)N1CCOCC1 [MLS000712999]
	2.68	CC(/C=C1\SC(=S)N(C(C(=O)O)C(C)C)C1=O)=C\c1ccccc1 (configuration not stated) [MLS000713304]
4.95		O=C(Nc1ccc2oc(-c3ccccc3)nc2c1)c1ccncc1 [MLS000109492]
0.71		COc1ccccc1NC(=S)NNC1=c2cc(Br)ccc2=NC1=O [MLS000778253]
19.2		O=C(NC1CCCC1)C(c1ccncc1)N(Cc1ccco1)C(=O)c1ccc(-c2ccccc2)[nH]1 (configuration not stated) [MLS000718066]
212		O=C(CC(Cc1ccccc1)c1ccco1)NC1CCCCC1 (configuration not stated) [MLS000556612]
66.5		O=C(Nc1ccc2oc(-c3ccccc3F)nc2c1)c1ccco1 [MLS000709180]
1.38		CCc1ccc(OCCNC(=O)c2ccccc2SCc2ccc(F)cc2)cc1 [MLS000577152]
23.6		O=[N+]([O-])c1ccccc1C=C[CH+][N-]n1c(-c2ccc(Cl)cc2)n[nH]c1=S [MLS000555506]
